Results as given in ChEMBL document CHEMBL1156713, “NSAIDs revisited: putative molecular basis of their interactions with peroxisome proliferator-activated gamma receptor (PPARgamma)” (Eur J Med Chem, 2008).
One block for each compound: values may come before it.

How the values were obtained:
[1] = molecular target: T1, Peroxisome proliferator-activated receptor gamma (Homo sapiens) (UniProt P37231); test: Activity at PPARgamma in human Caco-2 cells assessed as luciferase activity at 50 uM relative to control; type: cell-based
T1 sequence (whole entry): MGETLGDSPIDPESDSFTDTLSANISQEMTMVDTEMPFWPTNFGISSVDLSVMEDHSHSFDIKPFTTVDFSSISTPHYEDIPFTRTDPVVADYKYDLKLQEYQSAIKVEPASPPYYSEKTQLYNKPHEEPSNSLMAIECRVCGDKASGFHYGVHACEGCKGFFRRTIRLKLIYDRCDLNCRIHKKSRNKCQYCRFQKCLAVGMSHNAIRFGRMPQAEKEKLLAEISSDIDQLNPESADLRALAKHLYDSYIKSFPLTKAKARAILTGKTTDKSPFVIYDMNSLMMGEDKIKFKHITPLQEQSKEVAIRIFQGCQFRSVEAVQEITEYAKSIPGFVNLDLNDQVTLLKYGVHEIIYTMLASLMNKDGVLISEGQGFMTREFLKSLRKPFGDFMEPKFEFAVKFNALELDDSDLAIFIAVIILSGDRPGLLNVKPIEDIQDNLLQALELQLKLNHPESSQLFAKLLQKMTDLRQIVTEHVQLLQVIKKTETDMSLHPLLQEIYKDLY

[2] = molecular target: T1, Peroxisome proliferator-activated receptor gamma (Homo sapiens); test: Activity at PPARgamma in human Caco-2 cells assessed as luciferase activity at 1000 uM relative to control; type: cell-based
[3] = Ratio of IC50 for COX1 to IC50 for COX2
[4] = molecular target: T1, Peroxisome proliferator-activated receptor gamma (Homo sapiens); test: Activity at PPARgamma in human Caco-2 cells assessed as luciferase activity at 100 uM relative to control; type: cell-based
[5] = molecular target: T1, Peroxisome proliferator-activated receptor gamma (Homo sapiens); test: Activity at PPARgamma in human Caco-2 cells assessed as luciferase activity at 10000 uM relative to control; type: cell-based
[6] = molecular target: T1, Peroxisome proliferator-activated receptor gamma (Homo sapiens); test: Activity at PPARgamma in human Caco-2 cells assessed as luciferase activity at 400 uM relative to control; type: cell-based

- fold change (FC) [1]: 6.43
Compound: COc1ccc2c(c1)c(CC(=O)O)c(C)n2C(=O)c1ccc(Cl)cc1

- fold change (FC) [2]: 5.81
Compound: CC(C)Cc1ccc(C(C)C(=O)O)cc1 (configuration not stated)

- Ratio IC50 [3]: 0.258
Compound: CSc1ccc(/C=C2/C(C)=C(CC(=O)O)c3cc(F)ccc32)cc1

- fold change (FC) [4]: 2.51
Compound: CC1=C(CC(=O)O)c2cc(F)ccc2/C1=C\c1ccc([S+](C)[O-])cc1 (configuration not stated)

- fold change (FC) [5]: 4.02
Compound: CC(=O)Oc1ccccc1C(=O)O

- fold change (FC) [6]: 3.33
Compound: CC1=C(CC(=O)O)c2cc(F)ccc2/C1=C\c1ccc(S(C)(=O)=O)cc1

- fold change (FC) [2]: 1.92
Compound: CN1C(C(=O)Nc2ccccn2)=C(O)c2ccccc2S1(=O)=O
